Experimental data as given in patent US20100168084A1, “Therapeutic compounds and related methods of use” (priority 2008, published 2010).

Target: T1, sirtuin protein (Homo sapiens, UniProt Q96EB6)
T1 sequence (Q96EB6 2-747 limits assumed): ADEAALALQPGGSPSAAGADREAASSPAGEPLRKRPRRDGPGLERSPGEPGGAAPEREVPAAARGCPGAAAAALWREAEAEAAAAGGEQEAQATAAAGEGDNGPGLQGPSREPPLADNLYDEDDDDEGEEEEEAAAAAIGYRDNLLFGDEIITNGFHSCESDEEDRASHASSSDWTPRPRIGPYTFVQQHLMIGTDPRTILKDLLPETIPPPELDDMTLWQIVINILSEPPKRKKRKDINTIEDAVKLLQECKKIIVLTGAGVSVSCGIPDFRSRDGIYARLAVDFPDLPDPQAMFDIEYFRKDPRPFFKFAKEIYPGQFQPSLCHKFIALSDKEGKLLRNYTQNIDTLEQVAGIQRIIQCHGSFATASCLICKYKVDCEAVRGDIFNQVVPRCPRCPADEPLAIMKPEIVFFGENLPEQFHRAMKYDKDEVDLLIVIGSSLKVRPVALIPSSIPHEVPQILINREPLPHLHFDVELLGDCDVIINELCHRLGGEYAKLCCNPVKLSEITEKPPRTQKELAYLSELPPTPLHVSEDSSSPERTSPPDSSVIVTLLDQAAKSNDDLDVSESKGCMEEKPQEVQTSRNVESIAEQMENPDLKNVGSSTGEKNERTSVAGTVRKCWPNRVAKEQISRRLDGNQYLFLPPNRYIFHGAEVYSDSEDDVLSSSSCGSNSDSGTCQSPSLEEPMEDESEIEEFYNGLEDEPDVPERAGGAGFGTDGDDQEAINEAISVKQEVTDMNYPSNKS
Assay: MS assay (IC50 MS ASSAY / ED50 MS / FOLD ACTIVATION MS)
Format: biochemical
Design: scale not given here

[1] = Table 4, class symbols, legend not given
[2] = Table 4, class symbols A′, A, B, D, NA, legend not given
[3] = MS assay, class symbols A′, A, B, D, NA, legend not given

Measured: ED50 MS ASSAY

COc1cc(C(=O)Nc2ccccc2-c2cn3cc(CN(C)C)sc3n2)cc(OC)c1OC [Compound 179]
A′: TABLE 4 | Table 4 | [1] | class symbols, no key given

COc1ccc(C(=O)Nc2cccc(-c3nc4cccnc4[nH]3)c2)c(OC)c1OC [Compound 181]
A′: TABLE 4 | Table 4 | [1] | class symbols, no key given

COc1cc(C)ccc1C(=O)Nc1cccc(-c2nc3cccnc3[nH]2)c1 [Compound 182]
A′: TABLE 4 | Table 4 | [1] | class symbols, no key given

COc1ccc(C(=O)Nc2cccc(-c3nc4ncccc4[nH]3)c2)c(OC)c1 [Compound 184]
A′: TABLE 4 | Table 4 | [1] | class symbols, no key given

COc1ccc(C(=O)Nc2cccc(-c3nc4cccnc4[nH]3)c2)cc1OC [Compound 185]
A′: TABLE 4 | Table 4 | [1] | class symbols, no key given

COc1ccc(C(=O)Nc2ccc(-c3cc4cccnc4o3)cc2)c(OC)c1 [Compound 190]
A′: TABLE 4 | Table 4 | [1] | class symbols, no key given

COc1ccc(C(=O)Nc2cccc(-c3cc4cccnc4o3)c2)c(OC)c1 [Compound 191]
A′: TABLE 4 | Table 4 | [1] | class symbols, no key given

COc1cc(C)ccc1C(=O)Nc1cccc(-c2nc3ncccc3s2)c1 [Compound 199]
A′: TABLE 4 | Table 4 | [1] | class symbols, no key given

CN(C)c1cccc(C(=O)Nc2cccc(-c3nc4ncccc4s3)c2)c1 [Compound 200]
A′: TABLE 4 | Table 4 | [1] | class symbols, no key given

COc1ccc(C(=O)Nc2cccc(-c3nc4ncccc4s3)c2)c(OC)c1 [Compound 202]
A′: TABLE 4 | Table 4 | [1] | class symbols, no key given

COc1ccc(C(=O)Nc2ccccc2-c2cn3ccsc3n2)cc1OC [Compound 203]
A′: TABLE 4 | Table 4 | [1] | class symbols, no key given

COc1cc(C(=O)Nc2ccccc2-c2cn3ccsc3n2)cc(OC)c1OC [Compound 204]
A′: TABLE 4 | Table 4 | [1] | class symbols, no key given

COc1ccc(C(=O)Nc2cccc(-c3nc4ccccc4[nH]3)c2)c(OC)c1 [Compound 211]
A′: TABLE 4 | Table 4 | [1] | class symbols, no key given

COc1ccc(C(=O)Nc2cccc(-c3nc4cccnc4s3)c2)c(OC)c1 [Compound 213]
A′: TABLE 4 | Table 4 | [1] | class symbols, no key given

COc1cc(OC)cc(C(=O)Nc2cccc(-c3nc4cccnc4s3)c2)c1 [Compound 215]
A′: TABLE 4 | Table 4 | [1] | class symbols, no key given

COc1ccc(C(=O)Nc2cccc(-c3nc4cccnc4s3)c2)cc1 [Compound 216]
A′: TABLE 4 | Table 4 | [1] | class symbols, no key given

COc1cc(C(=O)Nc2cccc(-c3nc4cccnc4s3)c2)cc(OC)c1OC [Compound 217]
A′: TABLE 4 | Table 4 | [1] | class symbols, no key given

COc1cc(C(=O)Nc2cccc(-c3cn4cccnc4n3)c2)cc(OC)c1OC [Compound 218]
A′: Table 4 | [2] | class symbols, no key given

COc1ccc(C(=O)Nc2ccccc2-c2cc3ccccc3[nH]2)cc1OC [Compound 254]
A′: [3] | Table 4 | [2]

COc1cc(C(=O)Nc2ccccc2-c2cc3ccccc3[nH]2)cc(OC)c1OC [Compound 255]
A′: [3] | Table 4 | [2]

COc1cc(C(=O)Nc2cccc(-c3nc4ccccc4[nH]3)n2)cc(OC)c1OC [Compound 259]
A′: [3] | Table 4 | [2]

COc1ccc(C(=O)Nc2cccc(-c3nc4ccccc4[nH]3)n2)cc1OC [Compound 260]
A′: [3] | Table 4 | [2]

COc1ccc(C(=O)Nc2ccc(-c3nc4ccccc4[nH]3)cc2)c(OC)c1 [Compound 262]
A′: [3] | Table 4 | [2]

COc1ccc(C(=O)Nc2ccccc2-c2cn3ccccc3n2)cc1OC [Compound 266]
A′: [3] | Table 4 | [2]

COc1cc(C(=O)Nc2ccccc2-c2cn3ccccc3n2)cc(OC)c1OC [Compound 267]
A′: [3] | Table 4 | [2]

CN(C)c1cccc(C(=O)Nc2ccccc2-c2cn3ccccc3n2)c1 [Compound 268]
A′: [3] | Table 4 | [2]

COc1cc(C(=O)Nc2ccccc2-c2cn3cc(CN4CCNCC4)sc3n2)cc(OC)c1OC [Compound 271]
A′: [3] | Table 4 | [2]

COc1ccc(C(=O)Nc2cccc(-c3nc4cnccc4s3)c2)c(OC)c1 [Compound 272]
A′: [3] | Table 4 | [2]

COc1ccc(C(=O)Nc2ncccc2-c2nc3ccccc3[nH]2)cc1OC [Compound 276]
A′: [3] | Table 4 | [2]

COc1cc(C(=O)Nc2ccccc2-c2nc3ccccc3[nH]2)cc(OC)c1OC [Compound 293]
A′: [3] | Table 4 | [2]

COc1ccc(C(=O)Nc2ccc(-c3nc4ccccc4[nH]3)cc2)cc1OC [Compound 294]
A′: [3] | Table 4 | [2]

COc1ccc(C(=O)Nc2ccccc2-c2nc3cnccc3s2)c(OC)c1 [Compound 317]
A′: [3] | Table 4 | [2]

COc1cc(C(=O)Nc2ccccc2-c2nc3cnccc3s2)cc(OC)c1OC [Compound 319]
A′: [3] | Table 4 | [2]

CN(C)c1ccc(C(=O)Nc2ccccc2-c2nc3cnccc3s2)cc1 [Compound 320]
A′: [3] | Table 4 | [2]

CN(C)c1cccc(C(=O)Nc2ccccc2-c2nc3cnccc3s2)c1 [Compound 321]
A′: [3] | Table 4 | [2]

COc1cc(C(=O)Nc2ccc(-c3nc4ccncc4o3)cc2)cc(OC)c1OC [Compound 341]
A′: [3] | Table 4 | [2]

COc1cc(C(=O)Nc2ccc(-c3nc4cnccc4o3)cc2)cc(OC)c1OC [Compound 347]
A′: [3] | Table 4 | [2]
